Data set [1] deals with α-glucosidase from Saccharomyces cerevisiae (Saccharomyces cerevisiae, UniProt P53341). The data set is described as follows: biochemical. As for the experimental part: The α-glucosidase inhibitory effects of diphenylquinoxaline-6-carbohydrazide hybrids 7a–o were determined by previously reported method. […] Later on, 25 μL of the substrate (p-nitrophenyl glucopyranoside, 4 mM) was added to each well of the plate, and incubation was continued for 20 min at 37 ^◦C.

Data set [2] deals with α-glucosidase (Saccharomyces cerevisiae, UniProt P53341). The data set is described as follows: Enzyme kinetic studies (Lineweaver–Burk plot, secondary plot). In kind it is biochemical. The method, then: A Lineweaver–Burk plot was generated to identify the type of inhibition and the Michaelis–Menten constant (Km) value was determined from the plot between reciprocal of the substrate concentration (1/[S]) and reciprocal of enzyme rate (1/V) over various inhibitor concentrations. The experimental inhibitor constant (Ki) value was constructed by secondary plots of the inhibitor concentration [I] versus Km.
Chain of α-glucosidase (Saccharomyces cerevisiae, UniProt P53341) (P53341 whole entry): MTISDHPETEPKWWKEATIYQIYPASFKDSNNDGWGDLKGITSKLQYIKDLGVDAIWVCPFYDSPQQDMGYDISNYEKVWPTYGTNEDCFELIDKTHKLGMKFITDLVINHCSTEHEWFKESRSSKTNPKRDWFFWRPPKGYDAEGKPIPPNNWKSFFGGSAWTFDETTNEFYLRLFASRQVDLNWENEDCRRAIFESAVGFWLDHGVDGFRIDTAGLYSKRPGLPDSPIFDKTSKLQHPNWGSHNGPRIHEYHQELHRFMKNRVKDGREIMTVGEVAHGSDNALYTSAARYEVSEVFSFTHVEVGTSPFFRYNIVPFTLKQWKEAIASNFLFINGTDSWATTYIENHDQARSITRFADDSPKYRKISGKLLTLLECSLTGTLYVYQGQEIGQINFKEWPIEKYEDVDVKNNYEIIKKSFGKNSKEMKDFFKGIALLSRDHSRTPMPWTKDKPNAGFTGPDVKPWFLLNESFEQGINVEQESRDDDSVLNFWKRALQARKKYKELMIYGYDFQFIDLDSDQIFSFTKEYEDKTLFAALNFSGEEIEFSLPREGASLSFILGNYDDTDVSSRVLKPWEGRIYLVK

For data set [3], the target named is α-glucosidase. Set-up: method as in doi:10.1039/C9NJ02580D. As to conditions: compound A versus standard acarbose; cited from earlier work.
Data set [4] has as its target α-glucosidase. Further details: method as in PMID 24398385. The settings on record: cited from earlier work.

Structures are written as SMILES. ≈ marks a conversion by molar mass, not a printed value. Like-named read-outs stand apart in the source and are kept apart here.

Chain of α-glucosidase from Saccharomyces cerevisiae (P53341 whole entry): as above

For orientation: melting point means the temperature, or range, at which the solid turns liquid. One may read the IC50 as the midpoint of a concentration-inhibition curve. Take `O=C(NN=Cc1ccc([N+](=O)[O-])cc1)c1ccc2nc(-c3ccccc3)c(-c3ccccc3)nc2c1` [7d, N'-(4-nitrobenzylidene)-2,3-diphenylquinoxaline-6-carbohydrazide]: the melting point is above 250 °C. In data set [1], this compound yielded an IC50 of 240 ± 7.5 µM.
`O=C(NN=Cc1cccs1)c1ccc2nc(-c3ccccc3)c(-c3ccccc3)nc2c1` [7o, 2,3-diphenyl-N'-(thiophen-2-ylmethylene)quinoxaline-6-carbohydrazide] yielded a melting point of 242 to 246 °C. Moreover, the IC50 in data set [1] was found to be 145 ± 5 µM.
Taken in the same sequence, the figures for `O=C(NN=Cc1cc2c(cc1[N+](=O)[O-])OCO2)c1ccc2nc(-c3ccccc3)c(-c3ccccc3)nc2c1` [7m, N'-((6-nitrobenzo[d][1,3]dioxol-5-yl)methylene)-2,3-diphenylquinoxaline-6-carbohydrazide] were above 250 °C and 353.7 ± 3.5 µM.
`O=C(NN=Cc1cccc(Oc2ccccc2)c1)c1ccc2nc(-c3ccccc3)c(-c3ccccc3)nc2c1` [7l, N'-(3-phenoxybenzylidene)-2,3-diphenylquinoxaline-6-carbohydrazide] displayed a melting point above 250 °C. This compound had an IC50 in data set [1] of 453 ± 4.7 µM.
On to `COc1ccc(C=NNC(=O)c2ccc3nc(-c4ccccc4)c(-c4ccccc4)nc3c2)cc1` [7g, N'-(4-methoxybenzylidene)-2,3-diphenylquinoxaline-6-carbohydrazide], for which the melting point was above 250 °C. In data set [1], the IC50 worked out at 320 ± 4.9 µM.
Regarding `COc1cc(C=NNC(=O)c2ccc3nc(-c4ccccc4)c(-c4ccccc4)nc3c2)ccc1O` [7j, N'-(4-hydroxy-3-methoxybenzylidene)-2,3-diphenylquinoxaline-6-carbohydrazide], the melting point was above 250 °C. Besides, half-maximal inhibition in data set [1] (IC50) required 358 ± 6.1 µM.
`COc1cc(/C=N/NC(=O)c2ccc3nc(-c4ccccc4)c(-c4ccccc4)nc3c2)cc(OC)c1OC` [7k, (E)-2,3-diphenyl-N'-(3,4,5-trimethoxybenzylidene)quinoxaline-6-carbohydrazide] registered an IC50 in data set [1] above 750 µM.
In general, Ki refers to a measure of affinity in units of concentration, obtained from inhibition or displacement. `O=C(NN=Cc1cccc(F)c1)c1ccc2nc(-c3ccccc3)c(-c3ccccc3)nc2c1` [7e, N'-(3-fluorobenzylidene)-2,3-diphenylquinoxaline-6-carbohydrazide] came in with a melting point above 250 °C. For the same compound, at α-glucosidase [2] (Lineweaver–Burk plot, Km increased, Vmax unchanged), the type of inhibition entry is listed as “competitive”. Besides, at α-glucosidase [2] (secondary plot of Km versus inhibitor concentration (0, 30, 70 and 110 µM), read-out: inhibition constant Ki), the Ki came out at 107 µM. In addition, the IC50 in data set [1] (in vitro α-glucosidase inhibition, substrate p-nitrophenyl glucopyranoside, mean ± SEM, at least three experiments, read-out: IC50) amounted to 111 ± 6 µM.
In the case of `Cc1nc2ccccc2n(CC(=O)N/N=C/c2ccc(OCCc3cn(CN4CCOCC4)nn3)cc2)c1=O` [compound A], the IC50 at α-glucosidase [3] is 21.92 mg/L (≈ 41.3 µM).
With `O=C(NN=Cc1cccc2ccccc12)c1ccc2nc(-c3ccccc3)c(-c3ccccc3)nc2c1` [7n, N'-(naphthalen-1-ylmethylene)-2,3-diphenylquinoxaline-6-carbohydrazide], the melting point was above 250 °C. It took 388 ± 6.5 µM to reach half-maximal inhibition in data set [1] (IC50).
The compound `O=C(NN=Cc1ccc(Cl)cc1)c1ccc2nc(-c3ccccc3)c(-c3ccccc3)nc2c1` [7f, N'-(4-chlorobenzylidene)-2,3-diphenylquinoxaline-6-carbohydrazide] gave a melting point of 234 to 238 °C. In addition, the IC50 in data set [1] was 260 ± 4.5 µM.
Taken in the same sequence, the figures for `O=C(NN=Cc1ccccc1)c1ccc2nc(-c3ccccc3)c(-c3ccccc3)nc2c1` [7a, N'-benzylidene-2,3-diphenylquinoxaline-6-carbohydrazide] were 230 to 232 °C and 155 ± 3 µM.
In turn, `O=C(NN=Cc1cccc([N+](=O)[O-])c1)c1ccc2nc(-c3ccccc3)c(-c3ccccc3)nc2c1` [7c, N'-(3-nitrobenzylidene)-2,3-diphenylquinoxaline-6-carbohydrazide] gave a melting point above 250 °C. In data set [1], it took 279 ± 5.8 µM to reach half-maximal inhibition (IC50).
The compound `O=C(NN=Cc1ccccc1[N+](=O)[O-])c1ccc2nc(-c3ccccc3)c(-c3ccccc3)nc2c1` [7b, N'-(2-nitrobenzylidene)-2,3-diphenylquinoxaline-6-carbohydrazide] returned a melting point above 250 °C. In data set [1], this compound gave an IC50 of 175 ± 5.9 µM.
Regarding `Cc1ccc(NC(=O)Cn2c(=O)c(C)nc3ccccc32)c([N+](=O)[O-])c1` [compound C], at α-glucosidase [4] (compound C versus standard acarbose), the IC50 is 83.8 ± 0.89 µM.
In turn, `O=C(NN=Cc1cc([N+](=O)[O-])ccc1Cl)c1ccc2nc(-c3ccccc3)c(-c3ccccc3)nc2c1` [7i, N'-(2-chloro-5-nitrobenzylidene)-2,3-diphenylquinoxaline-6-carbohydrazide] had a melting point above 250 °C. The compound also came in with an IC50 in data set [1] of 231 ± 5.5 µM.
In the case of `COc1cccc(C=NNC(=O)c2ccc3nc(-c4ccccc4)c(-c4ccccc4)nc3c2)c1[N+](=O)[O-]` [7h, N'-(3-methoxy-2-nitrobenzylidene)-2,3-diphenylquinoxaline-6-carbohydrazide], the melting point is above 250 °C. In addition, the midpoint of inhibition in data set [1], the IC50, lay at 305 ± 7.2 µM.
For the compound `O=C(N/N=C1/c2ccccc2-c2nc3ccccc3nc21)c1ccc(Br)cc1` [compound B], on α-glucosidase [4] (compound B versus standard acarbose), the IC50 is 22.67 ± 0.1 µM.

The record behind these values is publication PMC9341091, “Design, synthesis, and molecular docking studies of diphenylquinoxaline-6-carbohydrazide hybrids as potent α-glucosidase inhibitors” (BMC Chemistry, 2022).
